Measurements as given in PubChem BioAssay AID1033 (Sanford-Burnham Center for Chemical Genomics, 2008).
Activity calls are given as the source filed them. No rule for the calls is given here.

Biological target: Chaperone protein DnaK (Escherichia coli (strain K12)) (UniProt P0A6Y8)
Assay: binders of DnaK substrate-binding domain, biophysical, NMR, chaperone (AID 1033)
Conditions: Purified DnaK SBD, NMR ligand binding

Chaperone protein DnaK (Escherichia coli (strain K12)), sequence (P0A6Y8 whole entry, looked up, the tested form may be a part): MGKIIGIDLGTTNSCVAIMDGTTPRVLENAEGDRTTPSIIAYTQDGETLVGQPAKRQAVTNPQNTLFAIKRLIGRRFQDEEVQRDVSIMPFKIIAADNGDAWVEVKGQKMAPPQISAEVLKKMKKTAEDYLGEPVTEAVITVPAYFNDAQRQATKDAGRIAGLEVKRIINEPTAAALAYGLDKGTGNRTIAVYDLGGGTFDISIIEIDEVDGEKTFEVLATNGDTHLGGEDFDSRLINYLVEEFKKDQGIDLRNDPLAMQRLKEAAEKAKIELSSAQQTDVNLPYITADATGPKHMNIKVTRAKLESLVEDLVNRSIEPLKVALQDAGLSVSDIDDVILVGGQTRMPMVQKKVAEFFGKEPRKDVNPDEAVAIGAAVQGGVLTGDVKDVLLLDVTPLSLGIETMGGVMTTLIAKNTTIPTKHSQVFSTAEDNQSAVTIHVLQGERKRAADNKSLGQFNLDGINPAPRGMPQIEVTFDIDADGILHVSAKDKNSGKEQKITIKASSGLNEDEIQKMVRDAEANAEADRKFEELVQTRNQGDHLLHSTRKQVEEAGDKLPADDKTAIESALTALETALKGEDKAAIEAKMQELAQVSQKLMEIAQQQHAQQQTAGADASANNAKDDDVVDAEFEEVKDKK

Row | SMILES | Kd
1 | CCOCC(=O)NCc1n[nH]c(=O)c2ccccc12 | > 4 mM (inactive)
2 | Cc1cc(=O)cc(C)n1-c1ccccc1N1CCOCC1 | > 4 mM (inactive)
3 | S=C(c1cccnc1)N1CCOCC1 | > 4 mM (inactive)
4 | O=C(Nc1cccc2ncccc12)c1cccnc1 | > 4 mM (inactive)
5 | O=C1C2C3CCC(O3)C2C(=O)N1c1cccc(F)c1 (centres undefined) | > 4 mM (inactive)
6 | Cc1ccc(CNC(=O)c2ccc([N+](=O)[O-])o2)cc1 | < 0.2 mM
7 | Cc1ccc(/C=N/NC(N)=O)o1 | > 4 mM (inactive)
8 | O=C(c1ccc(Cl)s1)N1CCOCC1 | > 4 mM (inactive)
9 | O=C1C2C3C=CC(O3)C2C(=O)N1c1ccccc1 (centres undefined) | > 4 mM (inactive)
10 | Cc1cc(=O)c2c(O)cc(O)c(C)c2o1 | > 4 mM (inactive)
11 | Nc1ccc2c(c1)CCC2=O | > 4 mM (inactive)
12 | COC(=O)C[C@@H]1C2(C)C(=O)[C@@H](CC3C2CC[C@]2(C)C3CC(=O)O[C@H]2c2ccoc2)[C@H](OC(C)=O)C1(C)C (some centres undefined) | > 4 mM (inactive)
13 | C=C[C@@H](C1=CC(=O)C(OC)=C(OC)C1=O)c1ccccc1 | > 4 mM (inactive)
14 | CC(=O)NCC1(c2ccccc2)CCOCC1 | > 4 mM (inactive)
15 | Cc1cc(C)c(C(N)=O)c(=S)[nH]1 | > 4 mM (inactive)
16 | S=c1nc[nH]c2c1cnn2-c1ccccc1 | > 4 mM (inactive)
17 | COc1ccc(S(=O)(=O)NCCO)cc1 | > 4 mM (inactive)
18 | O=C(O)Cn1cc(C(=O)C2CC2)c2ccccc21 | > 4 mM (inactive)
19 | O=C(O)C1CC(=O)N(CCc2ccc(Cl)cc2)C1 (centres undefined) | > 4 mM (inactive)
20 | COC(=O)[C@H]1[C@H]2C[C@H]3c4[nH]c5ccccc5c4CCN3C[C@H]2CC[C@@H]1O | > 4 mM (inactive)
21 | CC1/C(=N/O)C[C@@H]2C[C@H]1C2(C)C (some centres undefined) | > 4 mM (inactive)
22 | CC(=O)NC(C)C12CC3CC(CC(C(=O)O)(C3)C1)C2 (centres undefined) | > 4 mM (inactive)
23 | O=C1C2=C(SCCS2)C(=O)N1CCCO | > 4 mM (inactive)
24 | O=C(NC1CCS(=O)(=O)C1)c1ccccc1 (centres undefined) | > 4 mM (inactive)
25 | Cc1cc(C(=O)Nc2cccnc2)no1 | > 4 mM (inactive)

Row | SMILES | Kd
26 | CC(C)=CCCC1(C)C=Cc2c(O)c3c(c(CC=C(C)C)c2O1)OC12C(=CC4CC1C(C)(C)OC2(C/C=C(/C)C(=O)O)C4=O)C3=O (centres undefined) | > 4 mM (inactive)
27 | COc1ccc(/C=C2\NC(=S)N(C)C2=O)cc1O | > 4 mM (inactive)
28 | NC(=O)C1CCN(S(=O)(=O)c2ccccc2)CC1 | > 4 mM (inactive)
29 | COc1ccc([C@@H]2CC(=O)c3c(O)cc(O[C@@H]4O[C@H](CO[C@H]5O[C@@H](C)[C@H](O)[C@@H](O)[C@H]5O)[C@@H](O)[C@H](O)[C@H]4O)cc3O2)cc1O | > 4 mM (inactive)
30 | Clc1ccc2c(N3CCNCC3)ccnc2c1 | > 4 mM (inactive)
31 | O=C(Nc1ccccc1)NC1CCS(=O)(=O)C1 (centres undefined) | > 4 mM (inactive)
32 | Cc1ccc(C(=O)Nc2c[nH]c(=O)[nH]c2=O)cc1 | > 4 mM (inactive)
33 | Cc1ccc(NC(=O)CC2NCCNC2=O)c(C)c1 (centres undefined) | > 4 mM (inactive)
34 | OCC1CNc2ccccc2O1 (centres undefined) | > 4 mM (inactive)
35 | CC(C)n1c(Nn2cnnc2)nc2ccccc21 | > 4 mM (inactive)
36 | O=c1c2ccccc2oc2ccc(O)cc12 | > 4 mM (inactive)
37 | CC(=O)Nc1nc2c(s1)C(=O)NCCC2 | > 4 mM (inactive)
38 | O=C1CCC(=O)N1c1cccc([N+](=O)[O-])c1 | > 4 mM (inactive)
39 | COc1cc2occc2c2oc(=O)ccc12 | > 4 mM (inactive)
40 | Fc1cc2nccnc2cc1N1CCSCC1 | > 4 mM (inactive)
41 | CCOC(=O)c1cc(C)n(-n2cnnc2)c1C | > 4 mM (inactive)
42 | CC(C)(C)C(=O)Nc1ncc(C(F)(F)F)cc1Cl | > 4 mM (inactive)
43 | COc1ccc(-c2cc(=O)c3c(OC)c(OC)c(OC)c(OC)c3o2)cc1 | > 4 mM (inactive)
44 | COc1cc(C)nc(N(CCO)CCO)n1 | > 4 mM (inactive)
45 | OCc1ccc2c(c1)CCO2 | > 4 mM (inactive)
46 | COc1cnn(-c2ccccc2)c(=O)c1N(C)C | > 4 mM (inactive)
47 | O=C(O)c1ccc2nccnc2c1 | > 4 mM (inactive)
48 | O=C1c2ccccc2C(=O)N1OCc1ccccc1 | > 4 mM (inactive)
49 | NNc1ncnc2sccc12 | > 4 mM (inactive)
50 | CN(C)CC(O)C1CCOC(C)(C)C1 (centres undefined) | > 4 mM (inactive)

Row | SMILES | Kd
51 | CC1=CC(=O)CC(C)(C)C1(O)/C=C/C(C)=C\C(=O)O (centres undefined) | > 4 mM (inactive)
52 | O=C(O)Cn1nnnc1-c1ccc(F)cc1 | > 4 mM (inactive)
53 | Cc1occc1C(=O)Nc1sccc1C(N)=O | > 4 mM (inactive)
54 | Oc1ccc2c(c1)OCO2 | > 4 mM (inactive)
55 | CC1Cc2nc(SCC(N)=O)n(C)c(=O)c2S1 (centres undefined) | > 4 mM (inactive)
56 | O=C(Nc1ccc2[nH]ccc2c1)c1cccs1 | < 0.2 mM
57 | CN(C)c1n[nH]c(=O)[nH]c1=O | > 4 mM (inactive)
58 | CNCc1ccco1 | > 4 mM (inactive)
59 | O=C(Nc1ccc2c(c1)OCCO2)c1c(F)cccc1F | > 4 mM (inactive)
60 | O=C(NC1CSCC1O)c1ccccc1 (centres undefined) | > 4 mM (inactive)
61 | O=c1[nH]nc(Cc2ccncc2)c2ccccc12 | > 4 mM (inactive)
62 | Cc1cc(C)n(CC(=O)O)n1 | > 4 mM (inactive)
63 | c1cncc(Cn2cccc2)c1 | > 4 mM (inactive)
64 | Nc1ccc2c(c1)OCCO2 | > 4 mM (inactive)
65 | O=C(O)CN1C(=O)c2ccc(C(=O)O)cc2C1=O | > 4 mM (inactive)
66 | NCc1oc(-c2ccccc2)cc1C(=O)O | > 4 mM (inactive)
67 | CC(=O)Nc1ccc(NC2SC(=O)NC2=O)cc1 (centres undefined) | > 4 mM (inactive)
68 | NC(=O)c1ccc(N=Cc2ccc[nH]2)cc1 | > 4 mM (inactive)
69 | O=C(O)CCCC(=O)Nc1nccs1 | > 4 mM (inactive)
70 | N#Cc1cc2c(nc1SCc1ccncc1)CCC2 | > 4 mM (inactive)
71 | Cc1onc(-c2ccccc2)c1C(=O)O | > 4 mM (inactive)
72 | COc1ccc2[nH]c(O)c(NC(C)=O)c2c1 | > 4 mM (inactive)
73 | Cn1ccnc1C(O)c1ccccc1 (centres undefined) | > 4 mM (inactive)
74 | Nc1ccccc1N1CCOCC1 | > 4 mM (inactive)
75 | Cc1ccc(NC(=O)c2ccccc2)s1 | > 4 mM (inactive)

Row | SMILES | Kd
76 | CC(=O)Nc1c(Cl)cnn(-c2ccccc2)c1=O | > 4 mM (inactive)
77 | Cc1csc(NC(=O)c2cccs2)n1 | > 4 mM (inactive)
78 | CCCCCCCCCCCC[C@H](C(=O)O)[C@@H](C)C(=O)O | > 4 mM (inactive)
79 | O=C(NS(=O)(=O)c1ccccc1)c1ccccc1F | > 4 mM (inactive)
80 | CC(=O)Oc1ccc2c(c1)c(C(C)=O)c(C)n2C | > 4 mM (inactive)
81 | COc1cc(O)c(C(=O)c2ccccc2)cc1O | > 4 mM (inactive)
82 | Clc1ccc(-c2noc(CN3CCCC3)n2)cc1 | > 4 mM (inactive)
83 | NC(=O)c1ccccc1N1CCCCC1 | > 4 mM (inactive)
84 | O=S(=O)(O)c1nc2ccccc2[nH]1 | > 4 mM (inactive)
85 | Cc1cc2c(nn1)CCc1nonc1-2 | > 4 mM (inactive)
86 | CC(=O)c1cccc(N=C2NC(=O)CS2)c1 | > 4 mM (inactive)
87 | O=C1CSC2(CN3CCC2CC3)N1 (centres undefined) | > 4 mM (inactive)
88 | Clc1ccc(-n2ccnc2)nn1 | > 4 mM (inactive)
89 | CCSc1nc(N)c(NC(=O)c2ccco2)c(=O)[nH]1 | > 4 mM (inactive)
90 | CC(C)n1nnc2cc(C(=O)O)ccc21 | > 4 mM (inactive)
91 | NC(=O)C1(c2ccccc2)CCOCC1 | > 4 mM (inactive)
92 | CNC(=O)c1c(O)c2ccccc2[nH]c1=O | > 4 mM (inactive)
93 | Cc1n[nH]c(=S)n(/N=C/c2ccccc2)c1=O | > 4 mM (inactive)
94 | Cc1cc(/C=N/O)nc(=O)[nH]1 | > 4 mM (inactive)
95 | Cc1nc2ccccc2c(=O)n1NC(=O)Nc1ccccc1 | > 4 mM (inactive)
96 | O=C(O)c1cc2ccccc2[nH]1 | > 4 mM (inactive)
97 | O=C(CSc1nnc2ccccn12)N1CCOCC1 | > 4 mM (inactive)
98 | C[C@@H]1CC[C@@]23CCC4(C)[C@@](C=CC5[C@@]6(C)CC[C@H](O)C(C)(C)C6CC[C@]54C)(OC2=O)C3[C@H]1C (some centres undefined) | > 4 mM (inactive)
99 | O=C(CSc1ncccn1)Nc1nccs1 | > 4 mM (inactive)
100 | Cn1c(SCC(N)=O)nc2ccccc2c1=O | > 4 mM (inactive)

Row | SMILES | Kd
101 | O=C(CC1Nc2ccccc2NC1=O)Nc1ccc(O)cc1 (centres undefined) | > 4 mM (inactive)
102 | Nc1nc(-c2ccccc2)ns1 | > 4 mM (inactive)
103 | Nc1ccc2[nH]ccc2c1 | > 4 mM (inactive)
104 | Oc1ccccc1N=Cc1cccnc1 | > 4 mM (inactive)
105 | OCc1ccc(-c2cccs2)s1 | > 4 mM (inactive)
106 | NC(=O)C1CCN(C(=O)c2ccccc2F)CC1 | > 4 mM (inactive)
107 | CN1CCN(CC(=O)Nc2ccccc2)CC1 | > 4 mM (inactive)
108 | O=C(O)c1ccc(-n2cccn2)cc1 | > 4 mM (inactive)
109 | NC(N)=Nc1nc2ccccc2o1 | > 4 mM (inactive)
110 | Cc1cccc(C)c1NC(=O)CN1CCOCC1 | > 4 mM (inactive)
111 | Nc1cc(=O)[nH]c(SCC(=O)NC2CCCCC2)n1 | > 4 mM (inactive)
112 | CSc1nc(NC(C)(C)C)nc(N2CCOCC2)n1 | > 4 mM (inactive)
113 | COc1c2ccccc2nc2occc12 | > 4 mM (inactive)
114 | Oc1ccc2c(c1)OCC1(O)Cc3cc(O)c(O)cc3C21 (centres undefined) | > 4 mM (inactive)
115 | Cc1nnc2ccc(N3CCCC3)nn12 | > 4 mM (inactive)
116 | CC1=CC2C(C(C)C)CCC(C)(O)C2CC1 (centres undefined) | > 4 mM (inactive)
117 | CC(=O)Oc1ccccc1N1C(=O)C=CC1=O | > 4 mM (inactive)
118 | CC[C@H]1CN2CCc3cc(OC)c(OC)cc3C2C[C@@H]1CC1NCCc2cc(OC)c(OC)cc21 (some centres undefined) | > 4 mM (inactive)
119 | O=C(CNC(=O)c1cccs1)NC1=NCCS1 | > 4 mM (inactive)
120 | O=C(NCc1cccs1)c1ccncc1 | > 4 mM (inactive)
121 | CC(=O)NC1C(=O)Nc2c(C)cc(C)cc21 (centres undefined) | > 4 mM (inactive)
122 | CCSc1nc2ccccc2[nH]1 | > 4 mM (inactive)
123 | CC(=O)c1cc2c(cc1O)OC(C)(C)C=C2 | > 4 mM (inactive)
124 | O=C(Nc1ccccc1C(F)(F)F)c1cnccn1 | > 4 mM (inactive)
